Measured values as given in PubChem BioAssay (NCI).
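Method: 48-hour compound exposure of cells in 96-well plates, five concentrations, linear interpolation of endpoints. GI50 marks 50% less growth. TGI is the concentration that stops growth completely.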

Experiments:
Assay in all cases: growth of human tumour cells (NCI), 48 h
[1] = tested on: 786-0 renal
[2] = tested on: A498 renal
[3] = tested on: A549 NSCLC
[4] = tested on: ACHN renal
[5] = tested on: BT-549 breast
[6] = tested on: CAKI-1 renal
[7] = tested on: CCRF-CEM leukemia
[8] = tested on: COLO 205 colon
[9] = tested on: DU-145 prostate
[10] = tested on: EKVX NSCLC
[11] = tested on: HCC-2998 colon
[12] = tested on: HCT-116 colon
[13] = tested on: HCT-15 colon
[14] = tested on: HL-60(TB) leukemia
[15] = tested on: HOP-62 NSCLC
[16] = tested on: HOP-92 NSCLC
[17] = tested on: HS 578T breast
[18] = tested on: HT29 colon
[19] = tested on: IGROV1 ovarian
[20] = tested on: K-562 leukemia
[21] = tested on: KM12 colon
[22] = tested on: LOX IMVI melanoma
[23] = tested on: M14 melanoma
[24] = tested on: MALME-3M melanoma
[25] = tested on: MCF7 breast
[26] = tested on: MDA-MB-231 breast
[27] = tested on: MDA-MB-435
[28] = tested on: MOLT-4 leukemia
[29] = tested on: NCI-H226 lung
[30] = tested on: NCI-H23 lung
[31] = tested on: NCI-H460 lung
[32] = tested on: NCI-H522 lung
[33] = tested on: NCI/ADR-RES ovarian
[34] = tested on: OVCAR-3 ovarian
[35] = tested on: OVCAR-4 ovarian
[36] = tested on: OVCAR-5 ovarian
[37] = tested on: OVCAR-8 ovarian
[38] = tested on: PC-3 prostate
[39] = tested on: RPMI-8226 leukemia
[40] = tested on: RXF 393 renal
[41] = tested on: SF-268 CNS
[42] = tested on: SF-295 CNS
[43] = tested on: SF-539 CNS
[44] = tested on: SK-MEL-2 melanoma
[45] = tested on: SK-MEL-28 melanoma
[46] = tested on: SK-MEL-5 melanoma
[47] = tested on: SK-OV-3 ovarian
[48] = tested on: SN12C renal
[49] = tested on: SNB-19 CNS
[50] = tested on: SNB-75 CNS
[51] = tested on: SR leukemia
[52] = tested on: SW-620 colon
[53] = tested on: T-47D breast
[54] = tested on: TK-10 renal
[55] = tested on: U251 CNS
[56] = tested on: UACC-257 melanoma
[57] = tested on: UACC-62 melanoma
[58] = tested on: UO-31 renal

C#C[C@]1(O)CC[C@H]2[C@@H]3CC=C4c5sc(Nc6ccncc6)nc5CC[C@]4(C)[C@H]3CC[C@@]21C
GI50 [1]: 120 nM | TGI [1]: 648 nM | GI50 [2]: 204 nM | TGI [2]: 517 nM | GI50 [3]: 372 nM | TGI [3]: 1820 nM | GI50 [4]: 484 nM | TGI [4]: 1940 nM | GI50 [5]: 330 nM | TGI [5]: 1620 nM | GI50 [6]: 345 nM | TGI [6]: 1560 nM | GI50 [7]: 257 nM | TGI [7]: 3750 nM | GI50 [8]: 227 nM | TGI [8]: 494 nM | GI50 [9]: 1050 nM | TGI [9]: 3620 nM | GI50 [10]: 552 nM | TGI [10]: 3160 nM | GI50 [11]: 1480 nM | TGI [11]: 2930 nM | GI50 [12]: 309 nM | TGI [12]: 1200 nM | GI50 [13]: 261 nM | TGI [13]: 1190 nM | GI50 [14]: 153 nM | TGI [14]: 1390 nM | GI50 [15]: 266 nM | TGI [15]: 1150 nM | GI50 [16]: 312 nM | TGI [16]: 1330 nM | GI50 [17]: 64.5 nM | TGI [17]: 580 nM | GI50 [18]: 308 nM | TGI [18]: 1290 nM | GI50 [19]: 531 nM | TGI [19]: 2050 nM | GI50 [20]: 247 nM | TGI [20]: 811 nM | GI50 [21]: 387 nM | TGI [21]: 1780 nM | GI50 [22]: 200 nM | TGI [22]: 476 nM | GI50 [23]: 182 nM | TGI [23]: 398 nM | GI50 [24]: 266 nM | TGI [24]: 994 nM | GI50 [25]: 232 nM | TGI [25]: 1380 nM | GI50 [26]: 942 nM | TGI [26]: 3280 nM | GI50 [27]: 293 nM | TGI [27]: 1050 nM | GI50 [28]: 216 nM | TGI [28]: 997 nM | GI50 [29]: 1620 nM | TGI [29]: 22500 nM | GI50 [30]: 657 nM | TGI [30]: 2520 nM | GI50 [31]: 372 nM | TGI [31]: 1400 nM | GI50 [32]: 740 nM | TGI [32]: 2220 nM | GI50 [33]: 1260 nM | TGI [33]: 4480 nM | GI50 [34]: 1480 nM | TGI [34]: 3660 nM | GI50 [35]: 1360 nM | TGI [35]: 3190 nM | GI50 [36]: 1060 nM | TGI [36]: 3130 nM | GI50 [37]: 987 nM | TGI [37]: 2780 nM | GI50 [38]: 243 nM | TGI [38]: 1350 nM | GI50 [39]: 42 nM | TGI [39]: 250 nM | GI50 [40]: 25.1 nM | TGI [40]: 110 nM | GI50 [41]: 445 nM | TGI [41]: 2850 nM | GI50 [42]: 91.2 nM | TGI [42]: 311 nM | GI50 [43]: 108 nM | TGI [43]: 318 nM | GI50 [44]: 342 nM | TGI [44]: 1320 nM | GI50 [45]: 148 nM | TGI [45]: 394 nM | GI50 [46]: 467 nM | TGI [46]: 1570 nM | GI50 [47]: 268 nM | TGI [47]: 780 nM | GI50 [48]: 745 nM | TGI [48]: 2110 nM | GI50 [49]: 305 nM | TGI [49]: 4640 nM | GI50 [50]: 191 nM | TGI [50]: 1930 nM | GI50 [51]: 47.2 nM | TGI [51]: 483 nM | GI50 [52]: 284 nM | TGI [52]: 901 nM | GI50 [53]: 973 nM | TGI [53]: 3990 nM | GI50 [54]: 1010 nM | TGI [54]: 2460 nM | GI50 [55]: 103 nM | TGI [55]: 1160 nM | GI50 [56]: 193 nM | TGI [56]: 416 nM | GI50 [57]: 223 nM | TGI [57]: 595 nM | GI50 [58]: 227 nM | TGI [58]: 822 nM
